Reference: US8796415B2, “Inhibitors of guanine exchange factors and their use as anticancer drugs” (Centre National de la Recherche Scientifique, priority 2009, dated 2014)
Blank lines part the entries; values can stand above or below the substance they belong to. Ends that are not written are not given here.

Key:
Trio DH2-PH2 = biological target: T1, Trio DH2-PH2 (Homo sapiens, UniProt O75962); assay: Yeast two-hybrid screening for binding to Trio DH2-PH2; details: 3-AT 80-120 mM
T1 construct: made in house
Excerpt: The inventors next reasoned that peptides that would bind stronger to the GEF domain may also be better at inhibiting its activity. The inventors thus generated a library of peptide aptamers derived from TRIPα by random mutagenesis, which the inventors screened for GEF binding in a yeast two-hybrid assay. The inventors chose a system in which the threshold of interaction detection can be modulated by the concentration of the 3-aminotriazole (3-AT) drug (Sardet et al., 1995). Since Tgat is toxic in yeast, the inventors used Trio DH2-PH2 to screen this TRIP-like peptide library. […] These clones were then produced as GST fusions and analyzed for their inhibition of Trio DH2-PH2, using the [3H]-GDP dissociation assay.
An aptamer library derived from TRIPα was created by PCR-based random mutagenesis of TRIPα inserted into the yeast two-hybrid vector pPC86. Sequencing of a statistically representative number of clones yielded a mutation rate of ˜3 mutations/clone. 6×10^5 independent clones were screened for interactors, using Trio DH2-PH2 (in the pPC97 vector) as a bait, in the MAV 103 yeast strain, on high concentrations of 3-AT (3-amino-triazol, Sigma) (80-120 mM). Selected peptides were then produced as GST-fusions and analyzed for their inhibition of Trio DH2-PH2 using the [3H]-GDP dissociation assay.

p115RhoGEF = biological target: T2, p115RhoGEF (Homo sapiens, UniProt Q92888); details: shown previously (Schmidt et al., 2002 and unpublished results); cited from earlier work
T2 construct: GST (N); made in house; host or cells: baculovirus system
T2 sequence (Q92888 1-912): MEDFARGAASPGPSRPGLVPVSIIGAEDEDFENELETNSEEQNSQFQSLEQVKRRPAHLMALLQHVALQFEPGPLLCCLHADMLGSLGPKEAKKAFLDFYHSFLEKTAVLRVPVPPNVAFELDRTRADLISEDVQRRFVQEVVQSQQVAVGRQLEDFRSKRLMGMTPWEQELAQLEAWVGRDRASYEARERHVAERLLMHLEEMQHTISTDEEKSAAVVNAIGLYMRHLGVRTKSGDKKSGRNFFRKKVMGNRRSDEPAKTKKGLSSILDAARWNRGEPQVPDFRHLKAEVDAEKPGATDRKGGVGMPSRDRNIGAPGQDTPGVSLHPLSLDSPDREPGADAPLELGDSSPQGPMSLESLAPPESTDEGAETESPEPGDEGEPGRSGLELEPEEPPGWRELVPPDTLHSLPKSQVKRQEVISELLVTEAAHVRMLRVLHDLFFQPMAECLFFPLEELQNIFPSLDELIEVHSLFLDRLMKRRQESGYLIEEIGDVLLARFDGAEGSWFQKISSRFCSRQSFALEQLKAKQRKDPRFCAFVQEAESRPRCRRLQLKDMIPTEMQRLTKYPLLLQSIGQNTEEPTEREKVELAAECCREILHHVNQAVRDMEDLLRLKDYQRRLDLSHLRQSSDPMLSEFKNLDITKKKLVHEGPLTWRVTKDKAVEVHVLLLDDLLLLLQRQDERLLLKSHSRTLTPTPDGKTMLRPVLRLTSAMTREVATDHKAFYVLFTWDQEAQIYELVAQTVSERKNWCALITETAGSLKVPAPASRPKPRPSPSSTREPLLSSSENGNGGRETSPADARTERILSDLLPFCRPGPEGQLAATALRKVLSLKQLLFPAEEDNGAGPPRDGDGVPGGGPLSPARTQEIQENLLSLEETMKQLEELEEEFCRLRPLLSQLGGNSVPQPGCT

[1] = tested on: Dbl mediated RhoA activation; assay: RhoA activation assay (GST-RBD pull-down) in NIH3T3 cells expressing Dbl; assay type: cell-based; details: GFP-tagged peptide
Protocol: FIG. 8 represents the effect of GFP-TRIPE32G on RhoA activation induced by Dbl (left panel) or Tgat (right panel) in NIH3T3 cells, assayed by GST-RBD pulldown. The levels of GTP-bound and total RhoA protein are shown in the upper two panels. Expression levels of Myc-Dbl and of all GFP-tagged proteins are shown in the lower two panels.
The level of GTP-bound RhoA was measured by a GST pulldown assay as described (Schmidt et al., 2002). Briefly, cell lysates were incubated with glutathione beads coated with the recombinant Rho-binding domain (RBD) of the RhoA specific effector Rhotekin (Cytoskeleton Inc.).

[2] = tested on: NIH3T3 cells stably expressing GFP-Tgat; assay: Tumor formation in Balb/c nude mice grafted with NIH3T3 cells expressing Tgat; assay type: in vivo
Protocol: FIG. 10A represents tumor formation in Balb/c nude mice. NIH3T3 cells stably expressing GFP-Tgat/GST or GFP-Tgat/GSTTRIP E32G were injected subcutaneously into the flanks of Balb/c nude mice and tumor volume was measured every week. The graph is representative of the three independent assays that were performed.
FIG. 10B represents the tumor weights (in grams) after the experiments. Ten weeks post graft, mice were euthanised, tumors were excised and weighed, and the mean tumor weight was plotted on the graph. (*) A paired Student's t-test was performed, matching the samples for each mouse, and the P value was 0.019. Error bars represent standard deviation in all graphs.
Female Balb/c nu/nu mice were purchased from Charles River France and used at 6-8 weeks of age. 12 Balb/c nu/nu mice were subcutaneously grafted with 2×10^6 cells of each cell line on both sides (Tgat on the left and Tgat+TRIPE32G on the right flank of the leg). The appearance of tumors was scored visually every week. 10 weeks post graft, mice were euthanized and tumors excised and weighed. mRNA and protein levels in the tumors were verified by RT-PCR and Western blot (data not shown).

interaction with Trio DH2-PH2 in yeast two-hybrid assay (Trio DH2-PH2): no interaction
Substance: AREGADGAICGYNLATLVMLGPSERVFCPLCEPCSSDIYELM [TRIPα]
activity on p115RhoGEF (p115RhoGEF): not active

Substance: GST-TRIPE32G (AREGADGAICGYNLATLVMLGPSERVFCPLCGPCSSDIYELM; cysteine pairing not given here; also: GST fusion)
inhibition of oncogenic Dbl mediated RhoA activation in intact cells [1]: not able to inhibit RhoA activation by Dbl | number of mice with tumors ([2]; 12 mice grafted subcutaneously, peptide co-expressed with Tgat, Tgat alone ten out of twelve): seven | delay in the formation of tumors ([2]; peptide co-expressed with Tgat, versus Tgat alone): about three | weight of the tumors ([2]; ten weeks post graft, paired Student's t-test P value 0.019): significantly reduced
